Experimental findings from patent US20260041617A1, “COSMETIC COMPOSITION APPLICABLE TO THE SKIN AND BASED ON A VOLATILE MIXTURE OF ALKANES” (BIOSYNTHIS, priority 2022, published 2026) are described below.

The nature of this data set: Biodegradability by OECD 301F method (manometric respirometry test). Here is the method:
For the purposes of the present invention, the OECD 301F method makes it possible to assess the biodegradability of a substance by a manometric respirometry test.
The biodegradability of a volatile mixture of alkanes used in the cosmetic compositions applicable to the skin according to the invention was measured according to the OECD 301F method. For comparison, the degradation of isododecane (CAS 13475-82-6) was also measured with this method.
The OECD 301F method is used to characterize the ease of biodegradation of a substance by a manometric respirometry test.

On to `CC(CC(C)(C)C)CC(C)(C)C` [Isododecane (CAS 13475-82-6), 2,2,4,6,6-pentamethylheptane], for which the “Percentage of degradation according to the OECD 301F method” value worked out at 0%. Under “result in words”, the “biodegradable according to the OECD 301F method” value is “not biodegradable”.
